Measured values reported in patent US5147866A, “1,2-diamino-cyclobuten-3,4-dione derivatives” (Beecham Group p.l.c., priority 1989, dated 1992).

Legend:
[1] = Antihypertensive activity: systolic blood pressure, tail cuff method, spontaneously hypertensive rats; type: in vivo; conditions: spontaneously hypertensive rats (systolic blood pressure >180 mmHg)
Protocol: Systolic blood pressures were recorded by a modification of the tail cuff method described by I. M. Claxton, M. G. Palfreyman, R. H. Poyser, R. L. Whiting, European Journal of Pharmacology, 37, 179 (1976). A W+W BP recorder, model 8005 was used to display pulses. Prior to all measurements rats were placed in a heated environment (33.5°±0.5° C.) before transfer to a restraining cage. Each determination of blood pressure was the mean of at least 5 readings. Spontaneously hypertensive rats (ages 12-18 weeks) with systolic blood pressures >180 mmHg were considered hypertensive.

[2] = test system: guinea-pig isolated trachealis; assay: Bronchodilator activity: inhibition of spontaneous tone in guinea-pig isolated trachealis; conditions: Cavia porcellus; tracheal spirals, Krebs solution 37° C.; relaxation as percentage of total relaxation with 10^-3 M isoprenaline
Protocol: Male guinea pigs (300-600 g) were stunned by a blow to the head and bled from the carotid artery. The trachea was exposed, dissected free of connective tissue, and transferred to oxygenated Krebs solution at 37° C. Next, spirals (2 per trachea) were prepared by cutting the whole trachea spirally along its longitudinal axis and then dividing this spiral lengthwise. Each preparation was mounted, using silk thread, in a 10 ml organ bath filled with Krebs solution at 37° C. and bubbled with 5% CO2 with O2. The resting tension of the preparations was set at 2 g and changes in muscle tension were monitored isometrically by means of a UFI (2 oz) force and displacement transducer (Ormed Ltd) connected to a Linseis pen recorder. All preparations were allowed to equilibrate for 60 minutes. During this equilibration period the preparations were washed by upward displacement at 15 minute intervals and, if necessary, the resting tension was readjusted to 2 g using a mechanical micromanipulator system.
Once a steady resting tension had been obtained, the preparations were dosed […] with the test compound (10^-8 -2×10^-5 M), and finally a maximum relaxation achieved by addition of 10^-3 M isoprenaline. The fall in tension evoked by the test compound was expressed as a percentage of the total relaxation evoked in the presence of […]. Appropriate concentration-relaxation curves were then constructed and values for potency (IC50) were obtained.
[The composition of Krebs solution is: sodium chloride 118.07 mM, sodium hydrogen carbonate 26.19 mM, potassium chloride 4.68 mM, potassium orthophosphate 1.18 mM, magnesium sulphate septahydrate 1.8 mM and calcium chloride 2.52 mM;pH ca. 7.45.]

IC50 [2] [µM] | Compound | lowers blood pressure by ([1]; 3 mg/kg p.o.) [%] | lowers blood pressure by ([1]; 0.05 mg/Kg p.o.) [%]
3.7 | CC1(C)Oc2ccc(C#N)cc2[C@@H](Nc2c(N)c(=O)c2=O)[C@@H]1O (relative stereo) [Example 1] | 50 | –
– | CCc1ccc2c(c1)[C@@H](N(C)c1c(N)c(=O)c1=O)[C@H](O)C(C)(C)O2 [Example 12, trans-(3S,4R)-N^1-[4-(6-Ethyl-3,4-dihydro-2,2-dimethyl-2H-1-benzopyran-3-ol)]-2-amino-1-methylaminocyclobutene-3,4-dione] | – | 24
4 | CNc1c(N[C@@H]2c3cc(C#N)ccc3OC(C)(C)[C@H]2O)c(=O)c1=O (relative stereo) [Example 2] | 17 | –
3.1 | CN(c1c(N)c(=O)c1=O)[C@@H]1c2cc(C#N)ccc2OC(C)(C)[C@H]1O (relative stereo) [Example 3, trans-N'-[4-(6-Cyano-3,4-dihydro-2,2-dimethyl-2H-1-benzopyran-3-ol)]-2-amino-1-methylaminocyclobutene-3,4-dione] | 58 | –
